Laboratory results as given in patent EP4268823A1, “COMPOUND FOR TREATING NEUROINFLAMMATION” (Universitätsklinikum Hamburg-Eppendorf, priority 2022, dated 2023).

Tests used:
[1] = target: T1, G9a (Mus musculus, UniProt Q9Z148); experiment: H3K9me2 / G9a immunofluorescence staining in primary neuronal cultures; format: cell-based
T1 construct: UNC0642 pre-treated primary neuronal cultures compared to respective controls; endogenous in cells; host or cells: primary mouse cortical neuronal cultures (C57BL/6J embryos)
T1 sequence (Q9Z148 1-1263): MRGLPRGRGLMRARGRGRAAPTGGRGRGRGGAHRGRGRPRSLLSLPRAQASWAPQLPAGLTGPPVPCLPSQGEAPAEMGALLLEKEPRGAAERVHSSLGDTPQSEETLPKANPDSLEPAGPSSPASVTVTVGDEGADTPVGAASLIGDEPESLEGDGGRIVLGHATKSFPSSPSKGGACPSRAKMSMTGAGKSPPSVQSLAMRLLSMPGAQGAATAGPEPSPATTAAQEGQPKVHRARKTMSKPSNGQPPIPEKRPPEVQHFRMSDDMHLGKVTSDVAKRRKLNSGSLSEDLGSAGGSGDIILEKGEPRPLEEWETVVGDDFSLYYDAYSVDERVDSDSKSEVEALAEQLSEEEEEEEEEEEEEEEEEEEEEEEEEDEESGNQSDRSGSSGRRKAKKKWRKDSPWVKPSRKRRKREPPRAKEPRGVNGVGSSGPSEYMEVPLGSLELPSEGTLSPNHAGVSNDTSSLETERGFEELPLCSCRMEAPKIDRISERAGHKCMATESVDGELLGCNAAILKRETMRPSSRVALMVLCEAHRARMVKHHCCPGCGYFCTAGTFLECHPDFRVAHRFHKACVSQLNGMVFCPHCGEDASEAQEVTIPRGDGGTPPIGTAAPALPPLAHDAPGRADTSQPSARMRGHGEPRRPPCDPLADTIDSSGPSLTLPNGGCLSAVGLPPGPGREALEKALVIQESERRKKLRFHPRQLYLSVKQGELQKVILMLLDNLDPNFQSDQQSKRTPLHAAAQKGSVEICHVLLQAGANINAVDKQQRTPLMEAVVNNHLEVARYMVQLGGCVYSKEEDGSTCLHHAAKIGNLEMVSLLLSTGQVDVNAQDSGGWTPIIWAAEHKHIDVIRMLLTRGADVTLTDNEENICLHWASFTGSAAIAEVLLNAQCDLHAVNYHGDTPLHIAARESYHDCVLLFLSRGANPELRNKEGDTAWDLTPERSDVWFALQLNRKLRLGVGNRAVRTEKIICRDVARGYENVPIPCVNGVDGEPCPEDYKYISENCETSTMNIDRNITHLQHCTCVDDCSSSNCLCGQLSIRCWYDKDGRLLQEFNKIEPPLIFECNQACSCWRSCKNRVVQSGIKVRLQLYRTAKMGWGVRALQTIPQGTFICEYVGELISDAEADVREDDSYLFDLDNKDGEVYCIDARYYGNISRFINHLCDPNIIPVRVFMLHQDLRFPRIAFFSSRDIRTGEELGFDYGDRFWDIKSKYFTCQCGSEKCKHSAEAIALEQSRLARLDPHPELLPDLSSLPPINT
Protocol: (§1) For primary cortical cultures pregnant C57BL/6J, or G9afl/fl;Snap25-Cre mice were euthanized. To ensure comparability between genotypes, only embryos from heterozygous breeding's were used. Brainstem tissue of each embryo for genotyping was reserved and cortices were isolated, dissociated and cells were plated at a density of 1 × 10^5 cells per 1 cm^2 on poly-D-lysine-coated wells (5 µM Sigma-Aldrich, cat. no. A-003-M). If not stated otherwise, cells were maintained in neurobasal plus medium (supplemented with B27 plus, penicillin, streptomycin and L-glutamine; Gibco, cat. no. A3582901) at 37°C, 5% CO^2 and a relative humidity of 98%, and treated with 1 µM cytarabine (Sigma-Aldrich, cat. no. BP383) at 1 day in vitro (div) to inhibit glial cell proliferation. If no cytarabine was applied cells were maintained in PNBM medium (supplemented with neural cell survival factor, gentamycin and L-glutamine; Lonza). Throughout, cultures after 14-23 div were used for experiments. G9a inhibitor UNC0642 was used in a concentration of 1 µM and cultures were pre-treated 24 hours before further experimental procedures.
Immunocytochemistry was performed as described previously (15). HiPSC-neurons and mouse neurons were cultivated on 12 mm diameter cover slips or on 96-well plates suited for confocal microscopy, fixed with 4% paraformaldehyde (PFA), incubated in 10% normal donkey's serum (NDS) containing 0.25% Triton X-100, and subsequently immunolabeling was performed. Immunostainings were analyzed with a Zeiss LSM 700 confocal microscope.

[2] = system: primary neuronal cultures; experiment: Cytosolic calcium imaging of H2O2-exposed neuronal cultures; format: cell-based, mouse; details: acute hydrogen peroxide stimulation, UNC0642 vs. DMSO
Protocol: as §1, with “Throughout, cultures after 14-23 div were used for experiments. G9a inhibitor UNC0642 was used in a concentration of 1 µM and cultures were pre-treated 24 hours before further experimental procedures.” left out
Primary neuronal cultures were seeded on Ibidi 60 µ-Dish Quad (cat. No. 80411) plates. […] Before applying the indicated chemicals, 5-10 min of baseline activity was first recorded. […] For data analysis, mean fluorescence values of every cell were measured using Fiji software (NIH) and normalized to the maximal calcium response after ionomycin challenge. For each cell, mean AUC of the calcium response was calculated using a custom R script.

[3] = system: glutathione; experiment: GSH-Glo glutathione measurement after glutamate; format: cell-based, mouse; details: primary cortical neurons, glutamate 2 hours, UNC0642-treated
Protocol: as §1
GSH-Glo Glutathione assay (Promega) was used as described by the manufacturer. Primary cortical neurons were cultured in a 96-well plate and stimulated with glutamate for 2 hours. […] After 15 min, luminescence was detected at a Spark 10M multimode microplate reader (Tecan).

[4] = target: T1, G9a; experiment: Flow cytometry of H3K9me2 in spinal cord neuronal nuclei of EAE mice; format: in vivo; details: EAE animals, 5 mg kg-1 UNC0642
[5] = system: anti-ferroptotic genes; experiment: qPCR of ferroptosis-related genes in sorted spinal cord neuronal nuclei of EAE mice; format: in vivo, mouse; details: EAE + UNC0642 vs. EAE
[6] = system: EAE mice; experiment: Experimental autoimmune encephalomyelitis (EAE): clinical score and spinal cord histopathology
[7] = primary neuronal cultures, 1 µM UNC0642 pre-treated 24 hours, vs. DMSO

In the case of `COc1cc2c(NC3CCN(C(C)C)CC3)nc(N3CCC(F)(F)CC3)nc2cc1OCCCN1CCCC1` [UNC0642, 2-(4,4-difluoropiperidin-1-yl)-6-methoxy-N-[1-(propan-2-yl)piperidin-4-yl]-7-[3-(pyrrolidin-1-yl)propoxy]quinazolin-4-amine], the “upregulation of H3K9me2 in response to ferroptosis induction” value ([1]; erastin or RSL3, with UNC0642) is reported as “effectively prevented”, the “upregulation of H3K9me2 by hydrogen peroxide treatment” value ([1]; hydrogen peroxide stimulation, UNC0642 treatment) is reported as “still able to overcome this effect” and the G9a protein level [1, 7] is reported as “did not change”. For the same molecule, the “reduction of H3K9me2 signal” value [1, 7] was 45%, the “hydrogen peroxide-induced calcium overload” value [2] was “rescued hydrogen peroxide-induced calcium overload” and the glutathione levels [3] was “partial rescue of glutathione levels”. For the same molecule, the “H3K9me2 levels in neuronal nuclei” value [4] was “complete normalization of H3K9me2 levels”, the “mRNA expression of Cbs” value [5] was “significantly boosted the expression” and the “mRNA expression of Gclc” value [5] was “significantly boosted the expression”. The “mRNA expression of Gpx4” value [5] was “significantly boosted the expression”, the “mRNA expression of Nfe212” value [5] was “significantly boosted the expression” and the “mRNA expression of multiple glutathione S-transferases” value [5] was “derepression”. The EAE disease course ([6]; 5 mg kg-1 body weight once daily intraperitoneally from symptom onset, vs. vehicle) was “significantly ameliorated EAE disease course”, the body weight changes ([6]; EAE, 5 mg kg-1 UNC0642) was “not altered” and the immune cell infiltration ([6]; EAE, 5 mg kg-1 UNC0642) was “not altered”. For the same molecule, the microglia activation ([6]; EAE, 5 mg kg-1 UNC0642) was “not altered”, the “4-hydroxy-2-nonenal (4-HNE) levels” value ([6]; cervical spinal cord sections, chronic EAE, 5 mg kg-1 UNC0642 vs. vehicle) was “significantly reduced” and the “neuronal loss in the spinal cord ventral horn” value ([6]; chronic EAE, day 30, 5 mg kg-1 UNC0642) was “reduced neuronal loss”.
